# Measurements taken from patent US20050165068A1, “Compounds, in particularly of urea derivatives or esters of haloacetamidobenzoic acid and use thereof for the treatment of parasitic diseases” (priority 2002, published 2005).
# Like-named read-outs stand apart in the source and are kept apart here.
# How the values were obtained:
# [1] = system: promastigote phase of Leishmania; conditions: 96 hours of contact, MTT marker; values of FIG. 1 not given
# mouse microphages = conditions: times less on mouse microphages than on the parasite
# Description: (§3) A tetrazolium salt (MTT) has been used as marker. In the case of L. mexicana, the molecules were evaluated relative to the intracellular amastigote stage (macrophages of Balb/c), the stage encountered in patients.
# L. major = test: in vivo anti-Leishmania activity, cutaneous model (L. major in Balb/c mice); conditions: MF 29 10 mg/kg intra-peritoneal once per day for 10 days, Glucantime subcutaneous, same scheme
# Description: (§1) In promastigotes of L. major (2×106) or of L. infantum (10^7) in the stationary phase are inoculated respectively by the subcutaneous route in the rear right paw or by intravenous route in the caudal vein. […] Meglumine antimoniate (Glucantime-Speca™ Rhone-Poulenc, Paris, France) containing 85 mg of pentavalent antimony per ml is administered by subcutaneous route according to the same therapeutic scheme. The control group receives the solvent of MF 29 and of the saline solution at 0.9% by intra-peritoneal route.
# (§2) For the cutaneous model, the efficacy of the treatment is evaluated by measuring the edema at the infected paw with the help of an electronic sliding foot (ref. 56371; Polylabo; Strasburg, France), and reported relative to the thickness of the counter-lateral paw. The mice are sacrificed […] after infection. A fragment of derma, of the spleen, of the liver and of the polyptic ganglion draining the lesion are set aside to determine the parasitic load in situ. As to the model of visceral leishmaniosis, the same protocol is carried out on the spleen and the liver. The parasitic load is expressed by the log10 of the number of parasites per gram of tissue.
# L. infantum = test: in vivo anti-Leishmania activity, visceral model (L. infantum); parameters: species or system mice; conditions: L. infantum intravenous, MF 29 10 mg/kg intra-peritoneal once per day for 10 days, Glucantime subcutaneous
# Description: as §1, §2
# tubuline of beef brain = system: tubuline of beef brain
# Description: The anti-microtubular activity of MF 29 is also compared to that of MF 191 and to that of the vinblastine on the assembly of the tubulines of beef brain.
# Experiments carried out to measure the capacity of in vitro polymerization of the tubuline were carried out with the help of a spectrophotometer provided with a circulating bath system at 37° C. and an automatic well loader permitting simultaneous measurement of several tests. The optical density which increases with polymerization of the assembly of the tubulines of the brain according to Lebanski et al., 1973, that is induced with the promoter MAP2 is measured at 345 nm every thirty seconds.
# [2] = system: Trypanosoma cruzi Peruvian strain
# Description: The in vivo anti-Trypanosoma activity of MF 29 has also been studied. Mice were infected with Trypanosoma cruzi Peruvian strain by intravenous route. Four days post-infection, the mice are treated with MF 29 by intra-peritoneal route once per day in the amount of 10 mg/Kg for 10 days. The control group receives the solvent. The effectiveness of the treatment is evaluated by measuring parasitemia and followed by mortality.
# Plasmodium falciparum = system: Plasmodium falciparum
# Description: MF 29 has been evaluated in a test of inhibition of the proliferation of Plasmodium falciparum (mortal species) in an intra-erythrocytic model by measuring the incorporation of hypoxanthine.
# [3] = system: MRC5 line (normal tissue of fetal lung); conditions: times less for MRC5 line than on the parasite
# Description: as §3
# [4] = system: promastigotes of L. mexicana; conditions: treatment for one hour at 5 μg/ml, sweeping electron microscope
# [5] = system: L. mexicana intracellular amastigote stage; test: activity on the intracellular amastigote stage of L. mexicana in macrophages of Balb/c; conditions: times greater than GLUCANTIME
# Description: as §3
molecule,measurement,setting,value
"CCOC(=O)c1ccc(NC(=O)CCl)cc1 [GR 37, 4-chloroacetamido ethyl benzoate]","in vitro anti-Leishmania activity (CI50 of Table 1 / FIG. 1, described in words)",[1],extraordinary activity
same,cytotoxicity on mouse macrophages relative to the parasite,mouse microphages,1000 times
CCOC(=O)c1ccccc1NC(=O)CCl [GR 38],"in vitro anti-Leishmania activity (CI50 of Table 1 / FIG. 1, described in words)",[1],similar
"CCOC(=O)c1cccc(NC(=O)CCl)c1 [MF 29, 3-chloroacetamido ethyl benzoate]",reduction of the hepatic parasitic load,L. major,96%
same,reduction of the polyptic ganglion parasitic load,L. major,59%
same,reduction of the spleen parasitic load,L. major,97%
same,reduction of the parasitic load in the liver,L. infantum,25%
same,reduction of the parasitic load in the spleen,L. infantum,56%
same,inhibition of polymerization of tubuline of beef brain,"tubuline of beef brain; 37° C., MAP2 promoter, FIG. 4C",weak inhibitor
same,inhibition of polymerization of tubuline of beef brain at doubled concentration,"tubuline of beef brain; doubled concentration of the drug, FIG. 4D",significant inhibition
same,mortality,"[2]; 10 mg/Kg intra-peritoneal once per day for 10 days, FIG. 5",retardation in the curve of mortality
same,mortality,"[2]; 20 mg/kg, preliminary results",greater reduction of mortality
same,reduction of the parasitic load,"[2]; 8th day, versus control group, 10 mg/Kg intra-peritoneal",70%
same,parasitemia (load),"[2]; 8th day, 10 mg/Kg intra-peritoneal once per day for 10 days from four days post-infection",200 trypomastigotes per 50 fields
same,parasitemia versus control group,"[2]; 10th day, 10 mg/Kg intra-peritoneal",equivalent for the two groups
same,CI50,Plasmodium falciparum; chloroquinine-sensitive strain (FCB1-Columbia),0.1 µg/mL
same,CI50,Plasmodium falciparum; strain (Nigerian strain) resistant to chloroquinine,0.1 µg/mL
same,"in vitro anti-Leishmania activity (CI50 of Table 1 / FIG. 1, described in words)",[1],high activity
same,cytotoxicity for the MRC5 line relative to that obtained on the parasite,[3],400 times
same,effect on the flagella,[4],do not seem to be disturbed
same,morphological changes of the cellular body,[4],multiple pores
same,activity in the amastigote form relative to GLUCANTIME,[5],300 times
"meglumine antimoniate [Glucantime, reference compound]",reduction of the polyptic ganglion parasitic load,L. major,44%
same,reduction of the parasitic load in the liver,L. infantum,30%
same,reduction of the parasitic load in the spleen,L. infantum,66%
